The term IC50 denotes the concentration that gives 50% inhibition.

Values joined by “and” are separate entries in the source; they are usually repeats but may differ in a detail not shown here. Identical values can stand only once.

Data on 28 compounds can be found in patent US7250410B2, “Cyclic nucleotide phosphodiesterase inhibitors, preparation and uses thereof” (Via Pharmaceuticals, Inc., priority 2001, dated 2007).

The first experiment concerns the target PDE4. Nature of the experiment: Inhibition of PDE4, radioenzymatic phosphodiesterase assay. The class given is biochemical, bovine. Particulars: Table 1, formula (III); 1 μM cyclic AMP. Summed up:
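PDE4 partially purified from bovine aortic media by 105,000 g centrifugation and anion-exchange chromatography with an NaCl gradient. Activity measured radioenzymatically: product nucleoside separated from nucleotides by anion exchange and counted by liquid scintillation.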
As for `COc1cc2c(cc1OC)C(c1ccc(-c3cccs3)cc1)=NN(C)C(=O)C2` [IIIau, 7,8-dimethoxy-3-methyl-1-[4-(2-thienyl)phenyl]-3,5-dihydro-4H-2,3-benzodiazepin-4-one], the half-inhibitory concentration (IC50) turned out to be 3.8 µM.

For `COc1cc2c(cc1OC)C(c1ccc(-c3cccc(NC(C)=O)c3)cc1)=NN(C)C(=O)C2` [IIIam, 1-[4-(3-acetamidophenyl)phenyl]-7,8-dimethoxy-3-methyl-3,5-dihydro-4H-2,3-benzodiazepin-4-one], the IC50 was 1.7 µM.

`COc1cc2c(cc1OC)C(c1ccc(-c3cc(C(F)(F)F)cc(C(F)(F)F)c3)cc1)=NN(C)C(=O)C2` [IIIaw, 1-{4-[3,5-bis-(trifluoromethyl)phenyl]phenyl}-7,8-dimethoxy-3-methyl-3,5-dihydro-4H-2,3-benzodiazepin-4-one] showed a half-inhibitory concentration (IC50) of 16 µM.

On to `COc1cc2c(cc1OC)C(c1ccc(-c3ccccc3C)cc1)=NN(C)C(=O)C2` [IIIaq, 7,8-dimethoxy-3-methyl-1-[4-(2-methylphenyl)phenyl]-3,5-dihydro-4H-2,3-benzodiazepin-4-one], for which half-maximal inhibition (IC50) required 1.9 µM.

Staying with this experiment, now noted: Table 1, formula (III); compound at 10 μM.
With `COc1cc2c(cc1OC)C(c1ccccc1)=NN(Cc1ccccc1)C(=O)C2` [IIIac, 3-benzyl-7,8-dimethoxy-1-phenyl-3,5-dihydro-4H-2,3-benzodiazepin-4-one], the “PDE4 percentage inhibition at 10 μM” value came to 33%.

For the compound `CCCCCCCCCCCCN1N=C(c2ccccc2)c2cc(OC)c(OC)cc2CC1=O` [IIIad, 3-n-dodecyl-7,8-dimethoxy-1-phenyl-3,5-dihydro-4H-2,3-benzodiazepin-4-one], the “PDE4 percentage inhibition at 10 μM” value amounted to 3.9%.

Staying with this experiment, now noted: Table 2, formula (XXII); 1 μM cyclic AMP.
In turn, `CCOc1cc2c(cc1OC)C(c1ccccc1)=NC(Cc1ccccc1)C(=O)N2` (stereo not shown) [XXIIbb, 3-benzyl-8-ethoxy-7-methoxy-5-phenyl-1,3-dihydro-2H-1,4-benzodiazepin-2-one] gave a half-maximal inhibitory concentration (IC50) of 15 µM.

Staying with this experiment, now noted: Table 2, formula (XXII); compound at 10 μM.
In the case of `COc1ccc2c(c1)C(c1ccccc1)=NCC(=O)N2` [XXIIao, 7-methoxy-5-phenyl-1,3-dihydro-2H-1,4-benzodiazepin-2-one], the “PDE4 percentage inhibition at 10 μM” value worked out at 11.5%.

Turning to `CCCCN(Cc1ccccc1)C(=O)OC1N=C(c2ccccc2)c2cc(OC)c(OC)cc2NC1=O` [XXIIav, (7,8-dimethoxy-5-phenyl-2-oxo-2,3-dihydro-1H-1,4-benzodiazepin-3-yl)benzyl(S)-butylcarbamate], the “PDE4 percentage inhibition at 10 μM” value was found to be 23%.

With `O=C1CN=C(c2ccccc2)c2cc3c(cc2N1)OCCO3` [XXIIah, 10-phenyl-2,3,6,8-tetrahydro-7H-[1,4]dioxino[2,3-h][1,4]benzodiazepin-7-one], the “PDE4 percentage inhibition at 10 μM” value is 21.2%.

The same experiment, now with this note: Table 3, formula (II); 1 μM cyclic AMP.
Consider `COc1cc2c(cc1OC)N(C)C(=O)CN=C2c1cccc(-c2ccccc2)c1` [IIay, 5-(1,1′-biphenyl-3-yl)-7,8-dimethoxy-1-methyl-1,3-dihydro-2H-1,4-benzodiazepin-2-one], for which the IC50 came to 6.6 µM.

As to `COc1cc2c(cc1OC)N(C)C(=O)CN=C2c1ccc2[nH]ccc2c1` [IIan, 5-(5-indolyl)-7,8-dimethoxy-1-methyl-1,3-dihydro-1,4-benzodiazepin-2-one], the IC50 came to 3.6 µM.

Consider `COc1cc2c(cc1OC)N(C)C(=O)CN=C2c1cccc(Br)c1` [IIax, 5-(3-bromophenyl)-7,8-dimethoxy-1-methyl-1,3-dihydro-2H-1,4-benzodiazepin-2-one], for which half-maximal inhibition (IC50) was put at 8.2 µM.

In turn, `COc1cccc(C2=NCC(=O)N(C)c3cc(OC)c(OC)cc32)c1` [IIal, 7,8-dimethoxy-5-(3-methoxyphenyl)-1-methyl-1,3-dihydro-1,4-benzodiazepin-2-one] gave an IC50 of 10 µM.

With `CCOc1cc2c(cc1OCC)N(C)C(=O)CN=C2c1ccccc1` [IIbf, 7,8-diethoxy-1-methyl-5-phenyl-1,3-dihydro-2H-1,4-benzodiazepin-2-one], the half-maximal inhibitory concentration (IC50) was determined as 0.86 µM.

`CCN1C(=O)C(C(O)(c2ccccc2)c2ccccc2)N=C(c2ccccc2)c2cc(OC)c(OC)cc21` (stereo not shown) [IIby, 7,8-dimethoxy-3-(diphenylhydroxymethyl)-1-ethyl-5-phenyl-1,3-dihydro-2H-1,4-benzodiazepin-2-one] yielded an IC50 of 8.2 µM.

Regarding `CCOc1cc2c(cc1OC)C(c1ccccc1)=NC(Cc1cccc(C#N)c1)C(=O)N2C` (stereo not shown) [IIdf, 3-[(8-ethoxy-7-methoxy-1-methyl-2-oxo-5-phenyl-2,3-dihydro-1H-1,4-benzodiazepin-3-yl)methyl]benzonitrile], the IC50 stood at 1.5 µM.

Turning to `CCN1C(=O)C(Cc2cc(Cl)ccc2Cl)N=C(c2ccccc2)c2cc(OC)c(OC)cc21` (stereo not shown) [IIdi, 3-(2,5-dichlorobenzyl)-7,8-dimethoxy-1-ethyl-5-phenyl-1,3-dihydro-2H-1,4-benzodiazepin-2-one], 8.15 µM corresponded to half-maximal inhibition (IC50).

The compound `CCOc1cc2c(cc1OC)C(c1ccccc1)=NC(c1ccccc1)C(=O)N2CC` (stereo not shown) [IIdk, 3,5-diphenyl-8-ethoxy-1-ethyl-7-methoxy-1,3-dihydro-2H-1,4-benzodiazepin-2-one] had a concentration for half-maximal inhibition (IC50) of 1.1 µM.

On to `CCN1C(=O)CN=C(c2ccc(C#CCOCc3ccccc3)cc2)c2cc(OC)c(OC)cc21` [IIbn, 5-{4-[3-(benzyloxy)prop-1-ynyl]phenyl}-1-ethyl-7,8-dimethoxy-1,3-dihydro-2H-1,4-benzodiazepin-2-one], for which it took 2.95 µM to reach half-maximal inhibition (IC50).

As for `CCN1C(=O)C(Cc2ccccc2C#N)N=C(c2ccccc2)c2cc(OC)c(OC)cc21` (stereo not shown) [IIce, 3-(2-cyanobenzyl)-7,8-dimethoxy-1-ethyl-5-phenyl-1,3-dihydro-2H-1,4-benzodiazepin-2-one], the concentration for half-maximal inhibition (IC50) is 0.88 µM and 1.4 µM.

Staying with this experiment, now noted: Table 3, formula (II); compound at 10 μM.
`CCN1C(=O)C(C/C=C/c2ccccc2)N=C(c2ccccc2)c2cc(OC)c(OC)cc21` (stereo not shown) [IIbz, 7,8-dimethoxy-1-ethyl-3-(E-3-phenylpropen-2yl)-5-phenyl-1,3-dihydro-2H-1,4-benzodiazepin-2-one]: the “PDE4 percentage inhibition at 10 μM” value is on record as 42.3%.

Take `COc1cc2c(cc1OC)N(C)C(=O)CN=C2CCc1ccccc1` [IIaz, 7,8-dimethoxy-1-methyl-5-(2-phenylethyl)-1,3-dihydro-2H-1,4-benzodiazepin-2-one]: the “PDE4 percentage inhibition at 10 μM” value is reported as 6.9%.

Take `CCN1C(=O)C(CC#N)N=C(c2ccccc2)c2cc(OC)c(OC)cc21` (stereo not shown) [IIcb, (1-ethyl-7,8-dimethoxy-2-oxo-5-phenyl-2,3-dihydro-1H-1,4-benzodiazepin-3-yl)acetonitrile]: the “PDE4 percentage inhibition at 10 μM” value came to 28.5%.

Regarding `CCN1C(=O)CN=C(c2ccccc2)c2cc(OC)c(OC)cc21` [IIbd, 1-ethyl-7,8-dimethoxy-5-phenyl-1,3-dihydro-2H-1,4-benzodiazepin-2-one], the “PDE4 percentage inhibition at 10 μM” value is recorded as 34.3%.

`CCN1C(=O)CN=C(c2cccc(C#Cc3ccccc3)c2)c2cc(OC)c(OC)cc21` [IIbw, 1-ethyl-7,8-dimethoxy-5-[3-(phenylethynyl)phenyl]-1,3-dihydro-2H-1,4-benzodiazepin-2-one]: the “PDE4 percentage inhibition at 10 μM” value was 46.1%.

As for `CCOC(=O)CC1N=C(c2ccccc2)c2cc(OC)c(OC)cc2N(CC)C1=O` (stereo not shown) [IIbv, ethyl (1-ethyl-7,8-dimethoxy-2-oxo-5-phenyl-2,3-dihydro-1H-1,4-benzodiazepin-3-yl)acetate], the “PDE4 percentage inhibition at 10 μM” value is on record as 44.4%.

The same experiment, now with this note: Table 3, formula (II); compound at 10 μM; 10 µM.
Take `CCN1C(=O)C(Cc2ccc(Cl)cc2)N=C(c2ccccc2)c2cc(OC)c(OC)cc21` (stereo not shown) [IIcn, 3-(4-chlorobenzyl)-1-ethyl-7,8-dimethoxy-5-phenyl-1,3-dihydro-2H-1,4-benzodiazepin-2-one]: the “PDE4 percentage inhibition at 10 μM” value stood at 45%.
